Measured values taken from publication PMC4865847, “Putative histidine kinase inhibitors with antibacterial effect against multi-drug resistant clinical isolates identified by in vitro and in silico screens” (Scientific Reports, 2016).
Several values for one entry are separate records, joined by “and”; a condition that tells them apart may be missing. Equal entries are not always repeated. Where two headings read alike, the source gives them in different places. Marks after values point to notes of the source that are not given here.

How the values were obtained:
Acinetobacter baumannii = experiment: Antibacterial susceptibility testing (MIC), A. baumannii; format: cell-based
Method in brief: (§1)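 Susceptibility is given as MIC by the standard double-dilution method, defined as no visible growth. For S. pneumoniae, conditions were anaerobic with Todd Hewitt yeast extract plus 200 U/mL catalase.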

S. aureus PhoR (PhoR^S) [1] = molecular target: T1, S. aureus PhoR (PhoR^S) (Staphylococcus aureus, UniProt Q2FXN7); experiment: In vitro autophosphorylation kinase assay with γ-32P-ATP, PhoR^S; format: biochemical; details: for inhibition at 2000 µM: read-out: inhibition of PhoR^S autophosphorylation
Method in brief: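 ≈4 μM HK incubated with up to 20 mM fragment in 50 mM Tris HCl pH 8.5, 50 mM KCl, 5 mM MgCl2, 0.5 mM EDTA, 0.1 mM DTT; started with γ-32P-ATP (0.03–0.06 μM ATP final). Quenched with SDS sample buffer/EDTA, run on SDS-PAGE unheated, phosphoprotein quantified by phosphor-imaging.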

E. coli PhoR (PhoR^E) = molecular target: T2, E. coli PhoR (PhoR^E) (Escherichia coli, UniProt P08400); experiment: Aggregation analysis by native-PAGE, PhoR^E; details: 2 mM (S5 and S6 5 mM), 10% DMSO
T2 construct: The catalytic portion (DHp and CA domain) of E. coli PhoR (PhoR^E); made in house; host or cells: E. coli RIL
Experimental: (§2) E. coli PhoR and EnvZ, and S. aureus PhoR ([…], final concentration) were prepared in kinase buffer. […] DMSO in the assays was maintained to a final concentration 10% (v/v). After 30 min of incubation at room temperature Native polyacrylamide gel electrophoresis (Native-PAGE) loading buffer was added and samples loaded. Coomassie blue staining was used for protein visualization.

[2] = tested on: Staphylococcus epidermidis; experiment: Antibacterial susceptibility testing (MIC/MBC), S. epidermidis; format: cell-based
Experimental: (§3) Minimal inhibitory concentrations (MICs) were determined following a standard double-dilution method. […] For S. pneumoniae MICs were determined by adapting the standard double-dilution method to anaerobic conditions and of this microorganism (use of Todd Hewitt Yeast extract with 200 U/mL of catalase and continuous monitoring of growth).

Klebsiella pneumoniae = experiment: Antibacterial susceptibility testing (MIC), K. pneumoniae; format: cell-based; details: for MIC: Klebsiella pneumoniae, ATCC700603, strain ATCC 700603; for MIC K. pneumoniae ATCC700603: strain ATCC 700603
Method in brief: as §1

Streptococcus pneumoniae = experiment: Antibacterial susceptibility testing (MIC), S. pneumoniae; format: cell-based; details: strain 49619
Experimental: Bacterial strains used in this study for antibacterial susceptibility testing (Table S5) were propagated using standard microbiological procedures. Minimal inhibitory concentrations (MICs) were determined following a standard double-dilution method. MICs were recorded as the lowest concentration of the compound where no visible growth was observed. After plating the dilutions around the MIC or growing them in fresh MH media, minimal bactericidal concentration (MBC) was recorded as the lowest concentration of the compound at which no colonies were formed or no growth was observed, respectively. For S. pneumoniae MICs were determined by adapting the standard double-dilution method to anaerobic conditions and of this microorganism (use of Todd Hewitt Yeast extract with 200 U/mL of catalase and continuous monitoring of growth).

Hemolysis assay = format: cell-based; details: human
Experimental: Hemolytic activity against human erythrocytes taken from a healthy donor was measured as previously described. The hemolysis experiments were carried out in accordance with the guidelines of the United Arab Emirates University (UAEU) Research Ethics Review Board. All experimental protocols were approved by the Research Ethics Review Board of UAEU and informed consent was obtained from all donors.

[3] = tested on: Stenotrophomonas maltophilia; experiment: Antibacterial susceptibility testing (MIC), S. maltophilia; format: cell-based
Method in brief: as §1

Streptococcus suis = experiment: Antibacterial susceptibility testing (MIC), S. suis; format: cell-based; details: Streptococcus suis, read-out: MIC Streptococcus suis 3881/S10, strain 3881/S10
Method in brief: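 MICs were determined by standard double (two-fold) dilution and read as the lowest compound concentration with no visible growth. MBC was the lowest concentration giving no colonies on plating, or no growth on regrowth in fresh MH medium. For S. pneumoniae the method was adapted to anaerobic conditions in Todd Hewitt yeast extract with 200 U/mL catalase, with growth monitored continuously.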

S. aureus PhoR (PhoR^S) [4] = molecular target: T1, S. aureus PhoR (PhoR^S); experiment: Aggregation analysis by native-PAGE, PhoR^S; details: 2 mM (S5 and S6 5 mM), 10% DMSO
Experimental: as §2

Pseudomonas aeruginosa = experiment: Antibacterial susceptibility testing (MIC), P. aeruginosa; format: cell-based; details: strain ATCC 27853; for MIC: Pseudomonas aeruginosa, ATCC27853
Method in brief: as §1

Staphylococcus aureus = experiment: Antibacterial susceptibility testing (MIC/MBC), S. aureus; format: cell-based; details: for MIC S. aureus DSM 20231 / bacteriostatic or bactericidal for S. aureus DSM 20231: strain DSM 20231
Experimental: as §3

Escherichia coli = experiment: Antibacterial susceptibility testing (MIC/MBC), E. coli; format: cell-based; details: Escherichia coli
Experimental: as §3

[5] = Solubility in kinase buffer; format: physicochemical; details: kinase buffer with 10% DMSO, pH 8.5, aqueous with cosolvent or surfactant or cyclodextrin, kinetic from dmso stock; kinase buffer in the presence of 10% DMSO; read-out: concentration above which not soluble / reduced solubility in kinase buffer
[6] = MDR clinical isolate NM8, read-out: MIC A. baumannii NM8
[7] = MDR clinical isolate NM35, read-out: MIC A. baumannii NM35
[8] = MDR clinical isolate NM75, read-out: MIC A. baumannii NM75
[9] = MDR clinical isolate NM109, read-out: MIC A. baumannii NM109
[10] = MDR clinical isolate NM124, read-out: MIC A. baumannii NM124
[11] = Staphylococcus epidermidis, DSM20044, strain DSM 20044, read-out: MIC S. epidermidis DSM 20044
[12] = Staphylococcus epidermidis, clinical isolate T7/3, read-out: MIC S. epidermidis T7/3
[13] = Staphylococcus epidermidis, clinical isolate T37/8, read-out: MIC S. epidermidis T37/8
[14] = Staphylococcus epidermidis, clinical isolate T6119, read-out: MIC S. epidermidis T6119
[15] = Staphylococcus epidermidis, strain RP62A (biofilm producer), read-out: MIC S. epidermidis RP62A
[16] = Staphylococcus epidermidis, strain RP62A/1 (non-biofilm producer), read-out: MIC S. epidermidis RP62A/1
[17] = clinical isolate B5/5, read-out: MIC S. maltophilia B5/5
[18] = clinical isolate B6/2, read-out: MIC S. maltophilia B6/2
[19] = clinical isolate B32/1, read-out: MIC S. maltophilia B32/1
[20] = Staphylococcus aureus, ATCC reference strain 25293, read-out: MIC S. aureus 25293
[21] = Staphylococcus aureus, DSM20231, strain DSM 20231, read-out: MIC S. aureus DSM 20231
[22] = Staphylococcus aureus, MRSA clinical isolate 127/08, read-out: MIC S. aureus 127/08
[23] = Staphylococcus aureus, MRSA clinical isolate 145/08, read-out: MIC S. aureus 145/08
[24] = Staphylococcus aureus, MRSA clinical isolate 274/08, read-out: MIC S. aureus 274/08
[25] = Staphylococcus aureus, MRSA, MRSA clinical isolate S908, read-out: MIC S. aureus S908
[26] = Staphylococcus aureus, MRSA, MRSA clinical isolate T4/6, read-out: MIC S. aureus T4/6
[27] = Staphylococcus aureus, MRSA, MRSA clinical isolate V4180, read-out: MIC S. aureus V4180
[28] = Staphylococcus aureus, MRSA, summary over susceptible MRSA clinical isolates, read-out: MICs for MRSA strains
[29] = ATCC25276, strain ATCC 25276, read-out: MIC E. coli ATCC 25276
[30] = strain CFT 073, read-out: MIC E. coli CFT 073

T1 sequence (Q2FXN7 entry or part of it): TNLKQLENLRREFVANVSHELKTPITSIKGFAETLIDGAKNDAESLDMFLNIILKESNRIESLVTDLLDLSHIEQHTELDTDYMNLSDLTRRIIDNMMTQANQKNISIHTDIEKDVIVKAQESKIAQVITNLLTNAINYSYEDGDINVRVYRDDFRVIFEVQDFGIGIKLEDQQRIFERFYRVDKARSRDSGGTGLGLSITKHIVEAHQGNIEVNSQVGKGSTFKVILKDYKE
T2 sequence (P08400 210-425): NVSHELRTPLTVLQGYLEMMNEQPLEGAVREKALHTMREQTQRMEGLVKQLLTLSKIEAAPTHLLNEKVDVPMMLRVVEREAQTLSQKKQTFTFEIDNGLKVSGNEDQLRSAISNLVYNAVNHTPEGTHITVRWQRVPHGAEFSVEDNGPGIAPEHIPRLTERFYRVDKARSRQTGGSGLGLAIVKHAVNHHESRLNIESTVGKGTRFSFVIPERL

CC(C)(C)c1ccc(O)c(CNc2ccccc2)c1 [S1.14, 4-tert-butyl-2-[(phenylamino)methyl]phenol]
bactericidal: bacteriostatic or bactericidal for S. epidermidis DSM 20044 ([2]; strain DSM 20044) | bacteriostatic or bactericidal for S. aureus DSM 20231 (Staphylococcus aureus)
do not cause HK aggregation: HK aggregation, PhoR^E (E. coli PhoR (PhoR^E)) | HK aggregation, PhoR^S (S. aureus PhoR (PhoR^S) [4])
>500 µg/mL: MIC K. pneumoniae ATCC700603 (Klebsiella pneumoniae) | MIC P. aeruginosa ATCC 27853 (Pseudomonas aeruginosa)
> 75%: inhibition at 2000 µM (S. aureus PhoR (PhoR^S) [1])
250 to 500 µg/mL: MIC (Acinetobacter baumannii; summary over strains, read-out: MICs for A. baumannii strains) | MIC ([2]; Staphylococcus epidermidis, summary over strains, read-out: MICs for the S. epidermidis strains) | MIC ([3]; summary over strains, read-out: MICs for S. maltophilia strains)
250 µg/mL: MIC (Acinetobacter baumannii; [9]) | MIC (Acinetobacter baumannii; [10]) | MIC [2, 12] | MIC (Staphylococcus aureus; [22]) | MIC (Staphylococcus aureus; [23]) | MIC (Staphylococcus aureus; [24]) | MIC (Staphylococcus aureus; [25]) | MIC (Staphylococcus aureus; [26]) | MIC (Staphylococcus aureus; [27]) | MIC (Staphylococcus aureus; [28])
500 µg/mL: MIC (Acinetobacter baumannii; [6]) | MIC (Acinetobacter baumannii; [7]) | MIC (Acinetobacter baumannii; [8]) | MBC ([2]; Staphylococcus epidermidis, DSM20044, strain DSM 20044) | MIC [2, 11] | MIC [2, 13] | MIC [2, 14] | MIC [2, 16] | MIC [3, 17] | MIC [3, 18] | MIC [3, 19] | MBC (Staphylococcus aureus; Staphylococcus aureus, DSM20231, strain DSM 20231, read-out: MBC S. aureus DSM 20231) | MIC (Staphylococcus aureus; [21])
500^¶ μg/ml: MIC S. epidermidis DSM 20044 ([2]; strain DSM 20044) | MIC S. aureus DSM 20231 (Staphylococcus aureus)
125 µg/mL: MIC (Streptococcus suis) | MIC (Staphylococcus aureus; [20])
> 500 µg/mL: MIC [2, 15] | MIC (Klebsiella pneumoniae) | MIC (Streptococcus pneumoniae) | HC50 (Hemolysis assay) | MIC (Pseudomonas aeruginosa) | MIC (Escherichia coli; [29]) | MIC (Escherichia coli; [30])

CC(=O)Nc1cccc(-c2ccccc2Cl)c1 [S1.7, N-[3-(2-chlorophenyl)phenyl]acetamide]
128 µg/mL: MIC (Streptococcus pneumoniae)
≥ 250 µg/mL: MIC (Staphylococcus aureus; [28])
≤ 1000 µM: solubility [5]
> 75%: inhibition at 2000 µM (S. aureus PhoR (PhoR^S) [1])
>500 µg/mL: MIC K. pneumoniae ATCC700603 (Klebsiella pneumoniae) | MIC P. aeruginosa ATCC 27853 (Pseudomonas aeruginosa)
do not cause HK aggregation: HK aggregation, PhoR^E (E. coli PhoR (PhoR^E)) | HK aggregation, PhoR^S (S. aureus PhoR (PhoR^S) [4])
1000 µM and ~1000 µM: IC50 (S. aureus PhoR (PhoR^S) [1]; IC50 PhoR^S, autophosphorylation, one time point (30 sec), 10% DMSO)
250^# μg/ml: MIC S. aureus DSM 20231 (Staphylococcus aureus)
> 500 µg/mL: MIC (Acinetobacter baumannii; [6]) | MIC (Acinetobacter baumannii; [7]) | MIC (Acinetobacter baumannii; [8]) | MIC (Acinetobacter baumannii; [9]) | MIC (Acinetobacter baumannii; [10]) | MIC [2, 11] | MIC [2, 12] | MIC [2, 13] | MIC [2, 14] | MIC [2, 15] | MIC [2, 16] | MIC (Klebsiella pneumoniae) | HC50 (Hemolysis assay) | MIC [3, 17] | MIC [3, 18] | MIC [3, 19] | MIC (Streptococcus suis) | MIC (Pseudomonas aeruginosa) | MIC (Staphylococcus aureus; [22]) | MIC (Staphylococcus aureus; [23]) | MIC (Staphylococcus aureus; [25]) | MIC (Staphylococcus aureus; [27]) | MIC (Escherichia coli; [29]) | MIC (Escherichia coli; [30])
bacteriostatic: bacteriostatic or bactericidal for S. aureus DSM 20231 (Staphylococcus aureus)
250 µg/mL: MIC (Staphylococcus aureus; [21]) | MIC (Staphylococcus aureus; [24]) | MIC (Staphylococcus aureus; [26])
125 µg/mL: MIC (Staphylococcus aureus; [20])
